Tests used:
[1] = system: TNF-α production in LPS stimulated THP-1 cells; test: Inhibition of TNF-α production in LPS stimulated THP-1 cells (ELISA); format: cell-based, human; conditions: mean relative secretion, basal = 0%; for TNF-α at 40 μM peptide: LPS-stimulated level without peptide = 100%; for TNF-α at 4 μM peptide / TNF-α at 10 μM peptide: stimulated = 100%
Method: After 6 hours of incubation at +37° C., 5% CO2 and in a humid atmosphere, the cell supernatants were collected, centrifuged and kept frozen in −20° C. until analyzed for TNF-α content by ELISA (R&D Systems, Minneapolis, Minn., USA). The results are presented as mean relative secretion (%), with stimulated TNF-α level without peptide added set to 100% and basal secretion set to 0% (Table 2).
After 6 hours of incubation, the cell supernatants were collected, centrifuged, and kept frozen in −20° C. until analyzed for TNF-α content by ELISA (R&D Systems, Minneapolis, Minn., USA). The results are presented as mean relative secretion (%), with stimulated TNF-α level without peptide added set to 100% and basal secretion set to 0% (Table 5).

S. aureus (CCUG 1800) = test: Minimal microbicidal concentration (MMC99) assay, S. aureus; format: cell-based; conditions: 2 hours; for MMC99 μM in 50% SWF: 50% heat inactivated simulated wound fluid
Method: Antimicrobial Activity was Measured as Bactericidal Effect on S. aureus Using Minimal Microbicidal Concentration, MMC99, Assay)
S. aureus (#1800; CCUG, Gothenburg, Sweden) cultured on blood-agar plates [Columbia agar (Oxoid, Basingstoke, UK) supplemented with 5% defibrinated horse blood (National Veterinary Institute (SVA), Uppsala, Sweden)] were transferred to brain heart infusion broth (3.7% BHI; Difco, BD Diagnostics, Franklin Lakes, N.J., USA) and incubated in a shaker at 250 rpm+37° C. over night. The culture was thereafter be diluted 1:10 in fresh BHI broth and incubated for additional two hours to reach log-phase growth. The bacteria were pelleted and suspended in 1% BHI medium (BHI broth diluted 100 times in ultra-pure water) to a concentration of 10^7 bacteria/ml as estimated by measuring optical density at 600 nm. Peptides were serially diluted by two-fold steps from 160 μM to 1.25 μM in 1% BHI medium. The peptides (100 μl) were thereafter incubated with bacteria (5 μl á 10^7 bact./ml) for 2 hours at +37° C. Drops (5 μl) of the suspension were placed on blood agar plates. The blood agar plates were incubated over night at +37° C. The MMC99 values, i.e. the lowest peptide concentration needed to achieve a 99% reduction of viable bacteria, were recorded (Table 3). The concentration of the bacterial suspension used in the assay was confirmed by viable counts on blood agar plates.
S. aureus (#1800; CCUG, Gothenburg, Sweden) cultured on blood-agar plates [Columbia agar (Oxoid, Basingstoke, UK) supplemented with 5% defibrinated horse blood (National Veterinary Institute (SVA), Uppsala, Sweden)] were transferred to brain heart infusion broth (3.7% BHI; Difco, BD Diagnostics, Franklin Lakes, N.J., USA) and incubated in a shaker at 250 rpm+37° C. over night. The culture was thereafter be diluted 1:10 in fresh BHI broth and incubated for additional two hours to reach log-phase growth. The bacteria were pelleted and suspended in 1% BHI medium (BHI broth diluted 100 times in ultra-pure water) to a final concentration of 10^7 bacteria/ml as estimated by measuring optical density at 600 nm.
Peptides were serially diluted by two-fold steps from 400 μM to 0.78 μM in either 1% BHI medium or in 50% heat inactivated simulated wound fluid [SWF, containing 1 part 0.1% peptone (Oxoid, Basingstoke, UK) in saline and 1 part fetal bovine serum, diluted 2 times in ultra-pure water].
The peptides (100 μl) were thereafter incubated with bacteria (5 μl a 10^7 bact./ml) for 2 hours at +37° C. Drops (5 μl) of the suspension were placed on blood agar plates. The blood agar plates were incubated over night at +37° C. The MMC99 values, i.e. the lowest peptide concentration needed to achieve a 99% reduction of viable bacteria were recorded (Table 6). The concentration of the bacterial suspension used in the assay was confirmed by viable counts on blood agar plates.
The antimicrobial effects of the peptides 232 (SEQ ID NO: 78), and 220 (SEQ ID NO:67) were analysed by MMC99 (minimal microbicidal concentration) assay against S. aureus (CCUG 1800), MRSA (CCUG 41879), P. aeruginosa (ATCC 15442), E. coli (CCUG 31246), S. pyogenes (CCUG 4207), P. acnes (CCUG 1794T), S. epidermidis (ATCC12228), K. pneumoniae (ATCC 13883), A. baumannii (ATCC 19606), and C. albicans (ATCC 64549). The peptides were purchased from Biopeptide Company (San Diego, Calif., USA) and Bachem AG (Bubendorf, Switzerland) and results are presented in Table 8A and 8B respectively.
Peptides were serially diluted in two different assay medium, 1% BHI medium (brain-heart infusion medium) or 50% heat inactivated simulated wound fluid (SWF), and thereafter incubated with the microorganisms for 2 hours. Drops of the suspension were placed on blood agar plates. The MMC99 values, i.e. the lowest peptide concentration needed to achieve a 99% reduction of viable microorganisms, were recorded. As presented in Table 8, all the peptides have the ability to kill microorganisms frequently appearing in infections. […]

[2] = screen 1, 99% reduction of viable bacteria

CFKWKRKMRKVR [Peptide 147]
TNF-α at 40 μM peptide ([1]; screen 1): 111% | MMC99 μM in 1% BHI medium (S. aureus (CCUG 1800); [2]): 10 µM

CFLWRRLMRKLR [Peptide 228]
TNF-α at 4 μM peptide ([1]; screen 2): 106.6% | TNF-α at 10 μM peptide ([1]; screen 2): 95.4% | TNF-α at 40 μM peptide ([1]; screen 2): 53.6% | MMC99 μM in 1% BHI medium (S. aureus (CCUG 1800); screen 2): 12.5 µM | MMC99 μM in 50% SWF (S. aureus (CCUG 1800); screen 2): 50 µM

CFLWRRLMRKV [Peptide 237]
TNF-α at 40 μM peptide ([1]; screen 2): 89.2%

CFLWRRNMRKVR [Peptide 227]
TNF-α at 40 μM peptide ([1]; screen 2): 111.0%

CFLWRRSMRRLR [Peptide 236]
TNF-α at 40 μM peptide ([1]; screen 2): 94.4%

CFQWKRAMRKVR [Peptide 123]
TNF-α at 40 μM peptide ([1]; screen 1): 156% | MMC99 μM in 1% BHI medium (S. aureus (CCUG 1800); [2]): 20 µM

CFQWKRAMRKVR [Peptide 144]
TNF-α at 40 μM peptide ([1]; screen 1): 140% | MMC99 μM in 1% BHI medium (S. aureus (CCUG 1800); [2]): 10 µM

CFQWQKRMKRVK [Peptide 148]
TNF-α at 40 μM peptide ([1]; screen 1): 132% | MMC99 μM in 1% BHI medium (S. aureus (CCUG 1800); [2]): 20 µM

CFQWQRKMRKVR [Peptide 143]
TNF-α at 40 μM peptide ([1]; screen 1): 153% | MMC99 μM in 1% BHI medium (S. aureus (CCUG 1800); [2]): 20 µM

CFQWQRNMRKVR [Peptide 149]
TNF-α at 40 μM peptide ([1]; screen 1): 109% | MMC99 μM in 1% BHI medium (S. aureus (CCUG 1800); [2]): 13.3 µM

CLNFKRGVRKIR [Peptide 141]
TNF-α at 40 μM peptide ([1]; screen 1): 109% | MMC99 μM in 1% BHI medium (S. aureus (CCUG 1800); [2]): 20 µM

CRLWRRNMRKVR [Peptide 229]
TNF-α at 40 μM peptide ([1]; screen 2): 108.5%

CRLWRRRMRKVW [Peptide 233]
TNF-α at 40 μM peptide ([1]; screen 2): 90.7%

CWLWRRAMRKVW [Peptide 230]
TNF-α at 4 μM peptide ([1]; screen 2): 119.2% | TNF-α at 10 μM peptide ([1]; screen 2): 135.6% | TNF-α at 40 μM peptide ([1]; screen 2): 80.4% | MMC99 μM in 1% BHI medium (S. aureus (CCUG 1800); screen 2): 25 µM | MMC99 μM in 50% SWF (S. aureus (CCUG 1800); screen 2): 100 µM

EATKCFQWQRNMRKVR [Peptide 158]
TNF-α at 40 μM peptide ([1]; screen 1): 91%

FQWKPAIRKVR [Peptide 140]
TNF-α at 40 μM peptide ([1]; screen 1): 117% | MMC99 μM in 1% BHI medium (S. aureus (CCUG 1800); [2]): >160 µM

FQWKRAMRKVR [Peptide 122]
MMC99 μM in 1% BHI medium (S. aureus (CCUG 1800); [2]): 20 µM

FQWQPRIRKVR [Peptide 138]
TNF-α at 40 μM peptide ([1]; screen 1): 172% | MMC99 μM in 1% BHI medium (S. aureus (CCUG 1800); [2]): >160 µM

FQWQRNIRKIR [Peptide 134]
TNF-α at 40 μM peptide ([1]; screen 1): 109% | MMC99 μM in 1% BHI medium (S. aureus (CCUG 1800); [2]): 40 µM

FQWQRNIRKVR [Peptide 136]
TNF-α at 40 μM peptide ([1]; screen 1): 96% | MMC99 μM in 1% BHI medium (S. aureus (CCUG 1800); [2]): >160 µM

FQWQRNLRKLR [Peptide 135]
TNF-α at 40 μM peptide ([1]; screen 1): 103% | MMC99 μM in 1% BHI medium (S. aureus (CCUG 1800); [2]): 20 µM

FQWQRNMRKVR [Peptide 133]
TNF-α at 40 μM peptide ([1]; screen 1): 135% | MMC99 μM in 1% BHI medium (S. aureus (CCUG 1800); [2]): >160 µM

FQWQRPIRKVR [Peptide 137]
TNF-α at 40 μM peptide ([1]; screen 1): 137% | MMC99 μM in 1% BHI medium (S. aureus (CCUG 1800); [2]): >160 µM

FQWQRRIRKVR [Peptide 124]
TNF-α at 40 μM peptide ([1]; screen 1): 128% | MMC99 μM in 1% BHI medium (S. aureus (CCUG 1800); [2]): 20 µM

FQWRPGIRKLR [Peptide 139]
TNF-α at 40 μM peptide ([1]; screen 1): 148% | MMC99 μM in 1% BHI medium (S. aureus (CCUG 1800); [2]): 45 µM

FQWRRAIRKVR [Peptide 125]
TNF-α at 40 μM peptide ([1]; screen 1): 150% | MMC99 μM in 1% BHI medium (S. aureus (CCUG 1800); [2]): 20 µM

FWWQRKMRKVR [Peptide 131]
TNF-α at 40 μM peptide ([1]; screen 1): 87% | MMC99 μM in 1% BHI medium (S. aureus (CCUG 1800); [2]): 5 µM

GRRRRSVQWCA [Peptide 223]
TNF-α at 40 μM peptide ([1]; screen 2): 104.4% | MMC99 μM in 1% BHI medium (S. aureus (CCUG 1800); screen 2): 25 µM

GRRRRSVQWCA [Peptide 255]
TNF-α at 40 μM peptide ([1]; screen 2): 100.7%

KKLWRRWWRKVL [Peptide 244]
TNF-α at 4 μM peptide ([1]; screen 2): 107.7% | TNF-α at 10 μM peptide ([1]; screen 2): 116.7% | TNF-α at 40 μM peptide ([1]; screen 2): 10.7% | MMC99 μM in 1% BHI medium (S. aureus (CCUG 1800); screen 2): 12.5 µM | MMC99 μM in 50% SWF (S. aureus (CCUG 1800); screen 2): 50 µM

KRQSLARTFKQWARNLRKVL [Peptide 215]
TNF-α at 4 μM peptide ([1]; screen 2): 86.6% | TNF-α at 10 μM peptide ([1]; screen 2): 69.6% | TNF-α at 40 μM peptide ([1]; screen 2): 1.3% | MMC99 μM in 1% BHI medium (S. aureus (CCUG 1800); screen 2): 6.25 µM | MMC99 μM in 50% SWF (S. aureus (CCUG 1800); screen 2): 25 µM

LRLWRRSMRKVW [Peptide 235]
TNF-α at 40 μM peptide ([1]; screen 2): 89.3%

LRTWRRLTRKVW [Peptide 234]
TNF-α at 40 μM peptide ([1]; screen 2): 102.0%

LVKRLNRLWQFRKTAESQ [Peptide 216]
TNF-α at 40 μM peptide ([1]; screen 2): 121.9%

LVWIKRHIKKFK [Peptide 246]
TNF-α at 40 μM peptide ([1]; screen 2): 125.5%

QESARKQFRWLRNLTKVL [Peptide 202]
TNF-α at 40 μM peptide ([1]; screen 2): 90.3%

QREARKFRQWLRNMTKVR [Peptide 203]
TNF-α at 40 μM peptide ([1]; screen 2): 98.1%

QREARKRFQWLRNMTKVR [Peptide 201]
TNF-α at 40 μM peptide ([1]; screen 2): 128.6%

QSAARTFKQWARNLRKTL [Peptide 210]
TNF-α at 40 μM peptide ([1]; screen 2): 101.0%

QSAKTACFLWRRNMRKVR [Peptide 226]
TNF-α at 40 μM peptide ([1]; screen 2): 108.7%

QSEATKCFLWRRNMRKVR [Peptide 225]
TNF-α at 40 μM peptide ([1]; screen 2): 111.6%

QSEATKRFQWLRNLRKVL [Peptide 217]
TNF-α at 40 μM peptide ([1]; screen 2): 103.0%

QSEYTKRYQWLRNLRKVL [Peptide 204]
TNF-α at 40 μM peptide ([1]; screen 2): 96.9%

QSLAEKLFWQLRNLRKVR [Peptide 221]
TNF-α at 40 μM peptide ([1]; screen 2): 94.4%

QSRATKRFQWHRNARKVL [Peptide 207]
TNF-α at 40 μM peptide ([1]; screen 2): 160.9%

QSRATKRFQWLRNHRKVL [Peptide 208]
TNF-α at 40 μM peptide ([1]; screen 2): 130.2%

TKCFLWRRNMRKVRG [Peptide 242]
TNF-α at 40 μM peptide ([1]; screen 2): 116.8%

VSQSEATKRFQWLRNLRKVL [Peptide 214]
TNF-α at 40 μM peptide ([1]; screen 2): 88.8%

VWIVKKQVKRIK [Peptide 245]
TNF-α at 40 μM peptide ([1]; screen 2): 146.3%

WFKCFQWQRNMRKVR [Peptide 243]
TNF-α at 40 μM peptide ([1]; screen 2): 113.1%

WRRWLRKSVKRL [Peptide 247]
TNF-α at 40 μM peptide ([1]; screen 2): 88.2%

— US20140031296A1, “NEW SYNTHETIC PEPTIDES AND THEIR USE” (PERGAMUM AB, priority 2011, published 2014)
